Values quoted from earlier work as cited in US12453819B2, “Injector” (Antares Pharma, Inc., priority 2018, dated 2025).
Where a name gives a salt, the structure may show the parent alone.

| Compound | solubility in water: parts of water dissolving one part (as described in USP (soluble)) | solubility in alcohol (descriptive term) | solubility in chloroform (descriptive term) | solubility in ether (descriptive term) | solubility in water (descriptive term) | log P |
| --- | --- | --- | --- | --- | --- | --- |
| C=CCN1CC[C@]23c4c5ccc(O)c4O[C@H]2C(=O)CC[C@@]3(O)[C@H]1C5 [Naloxone hydrochloride] | 10-30 parts of water | slightly soluble | practically insoluble | practically insoluble | soluble | – |
| C=CCN1CC[C@]23c4c5ccc(O)c4O[C@H]2C(=O)CC[C@@]3(O)[C@H]1C5 [Naloxone, 17-allyl-4,5α-epoxy, 3-14-dihydroxymorphine-6-one] | – | – | – | – | – | 1.92 |
